The source of these data is publication PMC10298626 (International Journal of Molecular Sciences, 2023).

Marks after values point to notes of the source that are not given here.

Holding throughout (type): cell-based, Mouse
One experiment has as its system iNOS. Description: iNOS protein expression (immunoblotting) in LPS-stimulated RAW264.7 cells. As to conditions: 20, 40, and 80 μM pretreatment 2 h; LPS 500 ng/mL 24 h. The procedure: (§1) RAW264.7 cells were seeded into 6-well plates (2 × 10^6 cells/well) and incubated for 24 h. The cells were incubated with 20, 40, and 80 μM of coumarin derivative 2 for 2 h, and then LPS (500 ng/mL) was added for 30 min (for phosphorylation of ERK, JNK, p38, and p65) and 24 h (for protein expression of iNOS).
The cells were washed with PBS and lysed with radioimmunoprecipitation assay buffer containing 1 mM dithiothreitol (Wako, Tokyo, Japan), phosphatase inhibitor cocktail, 1 mM phenylmethylsulfonylfluoride, 1 mM sodium orthovanadate (Sigma), and 10 mM β-glycerophosphate (Sigma). The extracted proteins were centrifuged at 13,000× g rpm, separated via sodium dodecyl sulfate polyacrylamide gel electrophoresis, and transferred to polyvinylidene fluoride membranes. […] For detection, the antibodies were developed with Super Signal® West Femto Substrate (ThermoFisher, Waltham, MN, USA) and analyzed on a Fusion Solo Chemiluminescence System (Vilber Lourmat, Paris, France) ECL detection system.
Figure 4 Effect of coumarin derivative 2 on iNOS protein expression in LPS-stimulated RAW264.7 cells. […] (c) RAW264.7 cells (2.0 × 10^6 cells/6 cm dish) were pretreated with coumarin derivative 2 (20, 40, and 80 μM) for 2 h and incubated with LPS (500 ng/mL) for 6 h. iNOS mRNA expression levels were measured via a real-time quantitative reverse transcription polymerase chain reaction. […]

In a further experiment the test system is JNK. Kind of experiment: LPS-induced phosphorylation of JNK (immunoblotting) in RAW264.7 cells. The note with it: 20, 40, and 80 μM pretreatment 2 h; LPS 500 ng/mL 30 min. The procedure:
as §1
(§2) The cells were washed with PBS and lysed with radioimmunoprecipitation assay buffer containing 1 mM dithiothreitol (Wako, Tokyo, Japan), phosphatase inhibitor cocktail, 1 mM phenylmethylsulfonylfluoride, 1 mM sodium orthovanadate (Sigma), and 10 mM β-glycerophosphate (Sigma). The extracted proteins were centrifuged at 13,000× g rpm, separated via sodium dodecyl sulfate polyacrylamide gel electrophoresis, and transferred to polyvinylidene fluoride membranes. Nonspecific proteins were blocked by adding 5% skim milk. After blocking, primary antibodies were incubated overnight at 4 °C. After washing with the PBS-T buffer, the secondary antibodies were treated at room temperature for 2 h. For detection, the antibodies were developed with Super Signal® West Femto Substrate (ThermoFisher, Waltham, MN, USA) and analyzed on a Fusion Solo Chemiluminescence System (Vilber Lourmat, Paris, France) ECL detection system.
(§3) Figure 5 Inhibitory effects of coumarin derivative 2 on LPS-induced phosphorylation of MAPKs and NF-κB p65 in RAW264.7 cells. […]
Background: Immunoblotting shows a protein as a band on a membrane.

In experiment [1] the test system is LPS-stimulated RAW264.7 cells. Description: NO production (Griess reagent) in LPS-stimulated RAW264.7 cells. The procedure:
A high concentration of NO promotes the synthesis of inflammatory mediators, leading to an inflammatory response, and has been reported to be a cause of various immune diseases. Therefore, this study was conducted to investigate the effect of coumarin derivatives on the production of NO induced by LPS stimulation in RAW264.7 cells. The cells were treated with coumarin derivatives at concentrations of 20, 40, and 80 μM for 2 h. Then, the cells were treated with LPS. After 20 h, the culture supernatant was recovered, and the amount of NO was measured. […] The anti-inflammatory activity of these derivatives depended on the position of the substituted group rather than the electron density of the substituted group.
The Griess reagent was used to measure NO production. RAW264.7 cells were seeded into a 96-well plate and cultured for 24 h. The cells were treated with 20, 40, and 80 μM of coumarin derivatives, cultured for 2 h, and then cultured with LPS (500 ng/mL) for 20 h. The same amount of cell supernatant and Griess reagent were used for the reaction, and absorbance was measured at 540 nm.
In general terms: Nitrite, measured by Griess reagent, commonly stands in for NO production.

A further experiment concerns TNF-α mRNA. Description: TNF-α mRNA expression (qRT-PCR) in LPS-stimulated RAW264.7 cells. The note with it: 20, 40, and 80 μM; 2 h pretreatment, LPS 500 ng/mL 6 h. The procedure:
(§4) RAW264.7 cells were seeded into a 6-well plate (2 × 10^6 cells/well) and cultured for 24 h. The cells were treated with coumarin derivative 2 at 20, 40, and 80 μM and cultured for 2 h and with LPS (500 ng/mL) for 6 h.
(§5) The cells were washed with phosphate-buffered saline (PBS) and lysed with the RNeasy Mini kit (Qiagen, Hilden, Germany) for RNA isolation. RNA was converted to cDNA using the AccuPower reverse transcriptase Premix Kit (Bioneer, Daejeon, Republic of Korea). A Power SYBR Green PCR Master Mix (Applied Biosystems, Waltham, MN, USA) was used to perform polymerase chain reaction amplification. Amplification conditions were selected within the Quant 3 PCR system (Applied Biosystems). The data were normalized to the amount of glyceraldehyde 3-phosphate dehydrogenase.
(§6) Figure 3 Effects of coumarin derivative 2 on IL-6 and TNF-α production and mRNA expression in LPS-stimulated RAW264.7 cells. (a) Effect of coumarin derivative 2 on TNF-α and IL-6 production in RAW264.7 cells. The RAW264.7 cells (1 × 10^5/well, 96-well plates) were pretreated with coumarin derivative 2 (20, 40, and 80 μM) for 2 h and incubated with LPS (500 ng/mL) for 20 h. An ELISA kit was used to analyze cell supernatants for TNF-α and IL-6. […] IL-6 and TNF-α mRNA expression levels were measured via a real-time quantitative reverse transcription polymerase chain reaction.

Another experiment relates to IL-6 mRNA. Kind of experiment: IL-6 mRNA expression (qRT-PCR) in LPS-stimulated RAW264.7 cells. As to conditions: 20, 40, and 80 μM; 2 h pretreatment, LPS 500 ng/mL 6 h. The method, then: as §4, §5, §6
On the technique in general: Real-time PCR tracks product formation cycle by cycle.

In another experiment the test system is NF-κB p65. Description: LPS-induced phosphorylation of NF-κB p65 (immunoblotting) in RAW264.7 cells. As to conditions: 20, 40, and 80 μM pretreatment 2 h; LPS 500 ng/mL 30 min. The procedure: as §1, §2, §3

As to `N#CC1=C(N)Oc2c(c(=O)oc3ccccc23)C1c1cccc(F)c1` (stereo not shown) [Coumarin derivative 2], in the experiment with iNOS, the “iNOS expression (immunoblot)” value was “inhibited”. For the same compound, the “Phosphorylation of JNK” value in the experiment with JNK is reported as “inhibited”. The “NO production, Average” value in experiment [1] (20 μM for 2 h, then LPS (500 ng/mL) 20 h, LPS alone 25.9, control 3.1) came out at 22.53 µM. In addition, the “NO production, Average (μM)” value is reported as 15.24 *** μM in experiment [1] (40 μM for 2 h, then LPS (500 ng/mL) 20 h, LPS alone 25.9, control 3.1) and 10.17 *** μM in experiment [1] (80 μM for 2 h, then LPS (500 ng/mL) 20 h, LPS alone 25.9, control 3.1). Further, in experiment [1] (20, 40, and 80 μM, compared with LPS-only treatment), the “Anti-inflammatory effect (inhibition of NO secretion), in words” value is “inhibited NO secretion in a concentration-dependent manner”. Also, the IC50 in experiment [1] (Mus musculus, RAW264.7, read-out: IC50 of NO production inhibition) worked out at 33.4 µM. In the experiment with TNF-α mRNA, the “TNF-α mRNA expression” value is reported as “significantly suppressed”. The “IL-6 mRNA expression” value in the experiment with IL-6 mRNA is reported as “significantly suppressed”. Besides, the p65 phosphorylation entry with NF-κB p65 is “inhibited”.

What is called IC50 is the point on the concentration scale where inhibition reaches its midpoint.
